Measurements taken from ChEMBL document CHEMBL1201862, “PubChem BioAssay data set” (2004).
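In this assay, cells in 96-well plates receive the compound at five concentrations for 48 hours. Endpoints are linearly interpolated between the surrounding concentrations. At the GI50, growth is halved.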 Active and inactive are the calls of the source. No stated cut-off is given here; in the data, active = GI50 up to about 1.1 µM and inactive = higher.

Legend:
Assay in all cases: NCI-60 cell line screen, 48 h
M14 = test system: M14
OVCAR-8 = test system: OVCAR-8
NCI-H522 = test system: NCI-H522
SN12C = test system: SN12C
UACC-257 = test system: UACC-257
MDA-N = test system: MDA-N
OVCAR-5 = test system: OVCAR-5
HOP-62 = test system: HOP-62
HOP-92 = test system: HOP-92
OVCAR-4 = test system: OVCAR-4
CAKI-1 = test system: CAKI-1
EKVX = test system: EKVX
Malme-3M = test system: Malme-3M
HCT-116 = test system: HCT-116
K562 = test system: K562
MDA-MB-231 = test system: MDA-MB-231
SF-539 = test system: SF-539
Hs-578T = test system: Hs-578T
NCI-H226 = test system: NCI-H226
UACC-62 = test system: UACC-62

Compound | GI50 (M14) | GI50 (OVCAR-8) | GI50 (NCI-H522) | GI50 (SN12C) | GI50 (UACC-257) | GI50 (MDA-N) | GI50 (OVCAR-5) | GI50 (HOP-62) | GI50 (HOP-92) | GI50 (OVCAR-4) | GI50 (CAKI-1) | GI50 (EKVX) | GI50 (Malme-3M) | GI50 (HCT-116) | GI50 (K562) | GI50 (MDA-MB-231) | GI50 (SF-539) | GI50 (Hs-578T) | GI50 (NCI-H226) | GI50 (UACC-62)
CN(C)c1ccc(/N=N/c2ccccn2)cc1 | 9.82 µM (inactive) | 38.9 µM (inactive) | 38.7 µM (inactive) | 41.5 µM (inactive) | 3.89 µM (inactive) | 33.7 µM (inactive) | > 100 µM (inactive) | 71 µM (inactive) | 69.8 µM (inactive) | 36.2 µM (inactive) | 32.2 µM (inactive) | 11.9 µM (inactive) | 22.6 µM (inactive) | 6.67 µM (inactive) | 4.61 µM (inactive) | 20.8 µM (inactive) | 52.2 µM (inactive) | > 100 µM (inactive) | 32 µM (inactive) | 33.4 µM (inactive)
CCC(CO)Nc1nc(NCc2ccccc2)c2ncn(C(C)C)c2n1 (stereo not drawn) [(RS)-ROSCOVITINE] | 16.8 µM (inactive) | 16.7 µM (inactive) | 16.5 µM (inactive) | 32.7 µM (inactive) | 30.3 µM (inactive) | 30.3 µM (inactive) | 20.7 µM (inactive) | 11.9 µM (inactive) | 17.2 µM (inactive) | 20.2 µM (inactive) | 17.4 µM (inactive) | 18.2 µM (inactive) | 25.7 µM (inactive) | 8.38 µM (inactive) | 46.6 µM (inactive) | 25.8 µM (inactive) | 12.6 µM (inactive) | 4.58 µM (inactive) | 15 µM (inactive) | 12.8 µM (inactive)
COc1ccc(/C(CCl)=C(\Nc2ccccc2)c2ccc(OC)c(OC)c2)cc1OC | > 100 µM (inactive) | > 100 µM (inactive) | 94 µM (inactive) | > 100 µM (inactive) | > 100 µM (inactive) | > 100 µM (inactive) | > 100 µM (inactive) | > 100 µM (inactive) | 55.1 µM (inactive) | 75.5 µM (inactive) | > 100 µM (inactive) | > 100 µM (inactive) | > 100 µM (inactive) | 27.6 µM (inactive) | 58.3 µM (inactive) | 93.1 µM (inactive) | > 100 µM (inactive) | > 100 µM (inactive) | 68.9 µM (inactive) | > 100 µM (inactive)
Fc1ccc(N2C(=S)SC(=N\c3ccccc3)/C2=N/c2ccccc2)cc1 | > 100 µM (inactive) | > 100 µM (inactive) | > 100 µM (inactive) | > 100 µM (inactive) | > 67.1 µM (inactive) | > 100 µM (inactive) | > 85.3 µM (inactive) | > 75 µM (inactive) | > 42.8 µM (inactive) | > 57.7 µM (inactive) | > 100 µM (inactive) | 97.5 µM (inactive) | > 42.9 µM (inactive) | 17.5 µM (inactive) | 14.9 µM (inactive) | > 100 µM (inactive) | > 100 µM (inactive) | 81.3 µM (inactive) | > 100 µM (inactive) | > 92 µM (inactive)
CCOC(=O)c1cc2c([N+](=O)[O-])c(N)ccc2s1 | > 100 µM (inactive) | > 100 µM (inactive) | > 100 µM (inactive) | > 100 µM (inactive) | > 100 µM (inactive) | > 100 µM (inactive) | > 100 µM (inactive) | > 100 µM (inactive) | > 100 µM (inactive) | > 100 µM (inactive) | > 100 µM (inactive) | 57 µM (inactive) | > 100 µM (inactive) | > 100 µM (inactive) | > 100 µM (inactive) | > 100 µM (inactive) | > 100 µM (inactive) | > 100 µM (inactive) | > 100 µM (inactive) | > 100 µM (inactive)
C=C(CN(C)C)C(=O)c1ccc(OC)cc1 | 2.5 µM (inactive) | 1.07 µM (active) | 0.267 µM (active) | 2.48 µM (inactive) | 5.31 µM (inactive) | 7.46 µM (inactive) | 13.6 µM (inactive) | 21.7 µM (inactive) | 1.32 µM (inactive) | 5.26 µM (inactive) | 1.5 µM (inactive) | 18.7 µM (inactive) | 1.48 µM (inactive) | 1.58 µM (inactive) | 0.622 µM (active) | 11.6 µM (inactive) | 4.1 µM (inactive) | 15.5 µM (inactive) | 6.76 µM (inactive) | 9.33 µM (inactive)
